# Source: patent publication US20150374680A1, “POCHOXIME CONJUGATES USEFUL FOR THE TREATMENT OF HSP90 RELATED PATHOLOGIES” (UNIVERSITE DE STRASBOURG, priority 2010, published 2015)
# Where two headings read alike, the source gives them in different places.
# Assays:
# human HSP90α = target: T1, human HSP90α (Homo sapiens, UniProt P07900); assay: biochemical; assay type: binding
# T1 construct: purchased Stressgen SPP-776F
# Her-2 in SkBr3 cells = assay: Her-2 depletion in SkBr3 cells (pharmacodynamic marker of cellular efficacy); assay type: cell-based; details: Homo sapiens, SK-BR-3; SkBr3 cells treated with the inhibitor overnight; read-out: PD (μM), pharmacodynamic EC50, Her-2 depletion
# Protocol: FIG. 2. Cellular efficacy of pochoximes A1B5C1D1 (IC50). Depletion of Her-2 in SkBr3 cells were treated treated with the inhibitor for 18 h. […]
# [1] = competition assay, read-out: Measure KD against human HSP90α
Kd (human HSP90α; Measure KD against human HSP90α (nM)) [nM],Kd (human HSP90α; [1]) [nM],EC50 (human HSP90α) [nM],EC50 (Her-2 in SkBr3 cells) [µM],Structure (SMILES)
90,–,–,–,CC1CC=CC(NC(=O)CSC2OC(CO)C(O)C(O)C2O)CC=CC(=NOCC(=O)N2CCCCC2)Cc2cc(O)cc(O)c2C(=O)O1 (centres unmarked) [As-14(6-R)]
–,343,–,–,CC(=O)N[C@H]1/C=C/C[C@@H](C)OC(=O)c2c(O)cc(O)cc2CC(=NOCC(=O)N2CCCCC2)/C=C/C1 [As-15(6-R)]
–,–,34,≤ 5,CC1CC=CCCC=CC(=NOCC(=O)N2CCCCC2)Cc2cc(O)cc(O)c2C(=O)O1 (centres unmarked) [Compound A1B1C1D1]
–,–,540,–,CCN(CC)C(=O)CON=C1C=CCCC=CCC(C)OC(=O)c2c(O)cc(O)cc2C1 (centres unmarked) [Compound A1B1C1D18]
–,–,588,> 10,CCCC1CC=CCCC=CC(=NOCC(=O)N2CCCCC2)Cc2cc(O)cc(O)c2C(=O)O1 (centres unmarked) [Compound A1B1C2D1]
–,–,886,–,CC1CCCCN1C(=O)CON=C1C=CCCC=CCCOC(=O)c2c(O)cc(O)cc2C1 (centres unmarked) [Compound A1B1C4D2]
–,–,60,≤ 0.1,CC1CCCN(C(=O)CON=C2C=CCCC=CCCOC(=O)c3c(O)cc(O)cc3C2)C1 (centres unmarked) [Compound A1B1C4D3]
–,–,70,≤ 0.5,CC1CCN(C(=O)CON=C2C=CCCC=CCCOC(=O)c3c(O)cc(O)cc3C2)CC1 [Compound A1B1C4D4]
–,–,243,< 1,CCC1CCCCN1C(=O)CON=C1C=CCCC=CCCOC(=O)c2c(O)cc(O)cc2C1 (centres unmarked) [Compound A1B1C4D5]
–,–,238,< 5,CC1CCCC(C)N1C(=O)CON=C1C=CCCC=CCCOC(=O)c2c(O)cc(O)cc2C1 (centres unmarked) [Compound A1B1C4D6]
–,–,2240,> 10,O=C1OCCC=CCCC=CC(=NOCC(=O)N2CCC(c3ccccc3)CC2)Cc2cc(O)cc(O)c21 [Compound A1B1C4D7]
–,–,5760,> 10,O=C1OCCC=CCCC=CC(=NOCC(=O)N2CCC(Cc3ccccc3)CC2)Cc2cc(O)cc(O)c21 [Compound A1B1C4D8]
–,–,22,≤ 0.5,O=C1OCCC=CCCC=CC(=NOCC(=O)N2CC=CCC2)Cc2cc(O)cc(O)c21 [Compound A1B1C4D9]
–,–,124,≤ 0.5,O=C1OCCC=CCCC=CC(=NOCC(=O)N2CCOCC2)Cc2cc(O)cc(O)c21 [Compound A1B1C4D10]
–,–,70,≤ 0.5,O=C1OCCC=CCCC=CC(=NOCC(=O)N2CCSCC2)Cc2cc(O)cc(O)c21 [Compound A1B1C4D11]
–,–,640,≤ 5,O=C1OCCC=CCCC=CC(=NOCC(=O)N2CCNCC2)Cc2cc(O)cc(O)c21 [Compound A1B1C4D12]
–,–,337,≤ 5,CC1CN(C(=O)CON=C2C=CCCC=CCCOC(=O)c3c(O)cc(O)cc3C2)CC(C)O1 (centres unmarked) [Compound A1B1C4D14]
–,–,128,≤ 1,O=C1OCCC=CCCC=CC(=NOCC(=O)N2CC=CC2)Cc2cc(O)cc(O)c21 [Compound A1B1C4D15]
–,–,119,≤ 1,CC1C=CC(C)N1C(=O)CON=C1C=CCCC=CCCOC(=O)c2c(O)cc(O)cc2C1 (centres unmarked) [Compound A1B1C4D16]
–,–,219,≤ 0.5,O=C1OCCC=CCCC=CC(=NOCC(=O)N2CCCC2)Cc2cc(O)cc(O)c21 [Compound A1B1C4D17]
–,–,196,≤ 1,CCN(CC)C(=O)CON=C1C=CCCC=CCCOC(=O)c2c(O)cc(O)cc2C1 [Compound A1B1C4D18]
–,–,94,≤ 5,CC(C)CN(CC(C)C)C(=O)CON=C1C=CCCC=CCCOC(=O)c2c(O)cc(O)cc2C1 [Compound A1B1C4D19]

Kd (human HSP90α; Measure KD against human HSP90α (nM)) [nM],Kd (human HSP90α; [1]) [nM],EC50 (human HSP90α) [nM],EC50 (Her-2 in SkBr3 cells) [µM],Structure (SMILES)
–,–,162,≤ 1,CC(C)N(C(=O)CON=C1C=CCCC=CCCOC(=O)c2c(O)cc(O)cc2C1)C(C)C [Compound A1B1C4D20]
–,–,2990,> 10,O=C1OCCC=CCCC=CC(=NOCC(=O)N(Cc2ccccc2)Cc2ccccc2)Cc2cc(O)cc(O)c21 [Compound A1B1C4D21]
–,–,57,≤ 1,O=C(CON=C1C=CCCC=CCCOC(=O)c2c(O)cc(O)cc2C1)NCc1ccccc1 [Compound A1B1C4D22]
–,–,140,–,O=C1OCCC=CCCC=CC(=NOCC(=O)N2CCCCCC2)Cc2cc(O)cc(O)c21 [Compound A1B1C4D23]
–,–,155,≤ 5,O=C(CON=C1C=CCCC=CCCOC(=O)c2c(O)cc(O)cc2C1)NC1CCCCC1 [Compound A1B1C4D24]
–,–,116,≤ 1,CCCN(CCC)C(=O)CON=C1C=CCCC=CCCOC(=O)c2c(O)cc(O)cc2C1 [Compound A1B1C4D25]
–,–,372,≤ 10,COC(=O)CON=C1C=CCCC=CCCOC(=O)c2c(O)cc(O)cc2C1 [Compound A1B1C4D26]
–,–,200,≤ 1,CCN(CC)C(=O)CON=C1C=C(C)CCC=CCC(C)OC(=O)c2c(O)cc(O)cc2C1 (centres unmarked) [Compound A1B3C1D18]
–,–,196,≤ 1,CCCC1CC=CCCC(C)=CC(=NOCC(=O)N2CCCCC2)Cc2cc(O)cc(O)c2C(=O)O1 (centres unmarked) [Compound A1B3C2D1]
–,–,4660,> 10,CCCC1CC=CCCC(C)=CC(=NOCC(=O)N(CC)CC)Cc2cc(O)cc(O)c2C(=O)O1 (centres unmarked) [Compound A1B3C2D18]
–,–,32,–,CC1C=CCC(C)OC(=O)c2c(O)cc(O)cc2CC(=NOCC(=O)N2CCCCC2)C=CC1 (centres unmarked) [Compound A1B4C1D1]
–,–,811,–,CCCC1CC=CC(C)CC=CC(=NOCC(=O)N2CCCCC2)Cc2cc(O)cc(O)c2C(=O)O1 (centres unmarked) [Compound A1B4C2D1]
–,–,20,–,CC1CC=CC(O)CC=CC(=NOCC(=O)N2CCCCC2)Cc2cc(O)cc(O)c2C(=O)O1 (centres unmarked) [Compound A1B5C1D1]
–,–,39,–,CC1CC=CCCC=CC(=NOCC(=O)N2CCCCC2)Cc2c(Cl)c(O)cc(O)c2C(=O)O1 (centres unmarked) [Compound A2B1C1D1]
–,–,79,–,[N-]=[N+]=NCC1CC=CCCC=CC(=NOCC(=O)N2CCCCC2)Cc2c(Cl)c(O)cc(O)c2C(=O)O1 (centres unmarked) [Compound A2B1C7D1]
–,–,10,–,CC1CC=CC(O)CC=CC(=NOCC(=O)N2CCCCC2)Cc2c(Cl)c(O)cc(O)c2C(=O)O1 (centres unmarked) [Compound A2B5C1D1]
–,–,18,–,O=C1OCCC=CC(O)CC=CC(=NOCC(=O)N2CCCCC2)Cc2c(Cl)c(O)cc(O)c21 (centres unmarked) [Compound A2B5C4D1]
–,38,–,–,C[C@@H]1C/C=C/[C@@H](O)C/C=C/C(=NOCC(=O)N2CCCCC2)Cc2c(Cl)c(O)cc(O)c2C(=O)O1 [epi-pochoxime E]
–,14,–,–,C[C@@H]1C/C=C/[C@@H](O)C/C=C/C(=NOCC(=O)N2CCCCC2)Cc2cc(O)cc(O)c2C(=O)O1 [epi-pochoxime F]
–,22,–,–,CC1CC=CCCC=CC(=NOCC(=O)N2CCCCC2)Cc2c(Cl)c(O)cc(O)c2C(=O)O1 (centres unmarked) [pochoxime D]
–,34,–,–,C[C@@H]1C/C=C/[C@H](O)C/C=C/C(=NOCC(=O)N2CCCCC2)Cc2c(Cl)c(O)cc(O)c2C(=O)O1 [pochoxime E]
–,22,–,–,C[C@@H]1C/C=C/[C@H](O)C/C=C/C(=NOCC(=O)N2CCCCC2)Cc2cc(O)cc(O)c2C(=O)O1 [pochoxime F]

Structure (SMILES),Kd (human HSP90α; Measure KD against human HSP90α (nM)) [nM],Kd (human HSP90α; [1]) [nM],EC50 (human HSP90α) [nM],EC50 (Her-2 in SkBr3 cells) [µM]
CN1CCN(C(=O)CON=C2C=CCCC=CCCOC(=O)c3c(O)cc(O)cc3C2)CC1 [Compound A1B1C4D13],–,–,> 10000,–
C[C@@H]1C/C=C/[C@H](N)C/C=C/C(=NOCC(=O)N2CCCCC2)Cc2cc(O)cc(O)c2C(=O)O1 [aminopochoxime E],–,229,–,–
CC1CC=CC(N)CC=CC(=NOCC(=O)N2CCCCC2)Cc2cc(O)cc(O)c2C(=O)O1 (stereo not drawn) [epi-aminopochoxime E],–,34,–,–
